Source: ChEMBL document CHEMBL1142055, “Quinolinium salt as a potent inhibitor of lymphocyte apoptosis” (Bioorg Med Chem Lett, 2005)

Organism: Mus musculus
Test: Effective concentration by cytoprotection activity on glucocorticoid-induced apoptosis in murine thymocytes was determined in vitro
Format: functional

EC50 [µM] | SMILES
> 10 | CO/N=C(/Cn1c(=O)ccc2ccccc21)c1ccc(C)cc1
5.1 | CO/N=C(/C[n+]1ccccc1)c1ccc(C)cc1
0.35 | CO/N=C(/C[n+]1cccc2ccccc21)c1ccc(C)cc1
> 10 | CO/N=C(/Cn1c(=O)ccc2ccccc21)c1ccc(N2CCCC2)cc1

The next lines start with the compound.

SMILES | EC50 [µM]
Cc1ccc(C(=O)C[n+]2cccc3ccccc32)cc1 | > 10
Cc1ccc(C(=O)C[n+]2ccccc2)cc1 | > 10
CO/N=C(/C[n+]1ccccc1)c1ccc(N2CCCC2)cc1 | 0.28
Cc1ccc(C(=O)Cn2c(=O)ccc3ccccc32)cc1 | > 10
CO/N=C(/C[n+]1cccc2ccccc21)c1ccc(N2CCCC2)cc1 | 0.013
Cc1ccc(C(=O)Cn2c3c(sc2=N)CCCC3)cc1 | 4.4
Cc1ccc(-c2cn3c4c(sc3n2)CCCC4)cc1 | 2.5
